Where a SMILES comes first, the peptide text is derived from it. [ ]: non-standard residue; d: D form. The star is where a group is joined. Palmitoyl = CCCCCCCCCCCCCCCC(=O)*; Myristoyl = CCCCCCCCCCCCCC(=O)*; Nle = CCCC[C@H](N)C(=O)O; Dap = NC[C@H](N)C(=O)O
Legend:
[1] = biological target: T1, rat PrRP receptor (GPR10) in RC-4B/C cells (Rattus norvegicus, UniProt Q64121); assay: Competitive binding to rat pituitary RC-4B/C cells; conditions: ^125I-rat PrRP31, RC-4B/C cells
T1 construct: host or cells: RC-4B/C rat pituitary cell line
T1 sequence (Q64121 1-370): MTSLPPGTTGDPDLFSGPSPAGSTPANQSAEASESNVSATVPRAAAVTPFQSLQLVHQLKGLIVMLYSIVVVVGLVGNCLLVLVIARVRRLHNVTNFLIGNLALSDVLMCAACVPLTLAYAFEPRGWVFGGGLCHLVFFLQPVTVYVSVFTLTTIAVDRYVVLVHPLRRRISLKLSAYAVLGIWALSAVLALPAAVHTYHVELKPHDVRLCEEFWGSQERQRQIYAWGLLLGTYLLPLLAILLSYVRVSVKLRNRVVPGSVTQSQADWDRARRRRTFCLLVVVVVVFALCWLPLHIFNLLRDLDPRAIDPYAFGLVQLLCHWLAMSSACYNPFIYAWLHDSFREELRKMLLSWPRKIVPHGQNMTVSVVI

fasted C57BL/6 mice [2] = assay: Food intake in fasted mice after SC administration; assay type: in vivo, mouse; conditions: for food intake in fasted mice (in words): SC (peripheral) administration; for food intake / % control: SC administration; for % control: food intake vs saline
Method in brief: (§1)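 Male C57BL/6 mice, food-deprived 17 h, received saline, PrRP or lipidated analogs either SC at 1-10 mg/kg or ICV into the third ventricle at 4 nmol/mouse.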

fasted C57BL/6 mice [3] = assay: Food intake in fasted mice after ICV administration; assay type: in vivo; conditions: 4 nmol/mouse; for % control: food intake vs saline
Method in brief: as §1

% of PrRP31 binding [1] | SMILES | food intake in fasted mice (in words) (fasted C57BL/6 mice [2]) | food intake (fasted C57BL/6 mice [2]; 45 minutes, 5 mg/kg) | % control (fasted C57BL/6 mice [2]; 45 minutes, 5 mg/kg) | food intake (fasted C57BL/6 mice [2]; 300 minutes, 5 mg/kg) | % control (fasted C57BL/6 mice [2]; 300 minutes, 5 mg/kg) | food intake (fasted C57BL/6 mice [3]; 45 minutes) | % control (fasted C57BL/6 mice [3]; 45 minutes) | food intake (fasted C57BL/6 mice [3]; 300 minutes) | % control (fasted C57BL/6 mice [3]; 300 minutes) | dose dependence of the lowering of food intake (fasted C57BL/6 mice [2]; SC administration, 1, 2, 5 and 10 mg/kg, FIG. 5 and 6) | food intake (fasted C57BL/6 mice [2]; 45 minutes, 10 mg/kg) | % control (fasted C57BL/6 mice [2]; 45 minutes, 10 mg/kg) | food intake (fasted C57BL/6 mice [2]; 300 minutes, 10 mg/kg) | % control (fasted C57BL/6 mice [2]; 300 minutes, 10 mg/kg)
1072% | CCCCCCCCCCCCCCCC(=O)NC[C@H](N)C(=O)N[C@@H](CCCNC(=N)N)C(=O)N[C@@H](C)C(=O)N[C@@H](Cc1c[nH]cn1)C(=O)N[C@@H](CCC(N)=O)C(=O)N[C@@H](Cc1c[nH]cn1)C(=O)N[C@@H](CO)C(=O)N[C@@H](CCCC)C(=O)N[C@@H](CCC(=O)O)C(=O)N[C@H](C(=O)N[C@@H](CCCNC(=N)N)C(=O)N[C@H](C(=O)N1CCC[C@H]1C(=O)N[C@@H](CC(=O)O)C(=O)N[C@H](C(=O)N[C@@H](CC(N)=O)C(=O)N1CCC[C@H]1C(=O)N[C@@H](C)C(=O)N[C@@H](Cc1c[nH]c2ccccc12)C(=O)N[C@@H](Cc1ccc(O)cc1)C(=O)N[C@H](C(=O)NCC(=O)N[C@@H](CCCNC(=N)N)C(=O)NCC(=O)N[C@H](C(=O)N[C@@H](CCCNC(=N)N)C(=O)N1CCC[C@H]1C(=O)N[C@H](C(=O)NCC(=O)N[C@@H](CCCNC(=N)N)C(=O)N[C@@H](Cc1ccccc1)C(N)=O)C(C)C)[C@@H](C)CC)[C@@H](C)O)[C@@H](C)CC)[C@@H](C)O)[C@@H](C)O [Analog 6] (H-[Dap](Palmitoyl)RAHQHS[Nle]ETRTPDINPAWYTGRGIRPVGRF-NH2) | significantly decreased food intake | 0 g | 0% | 0.14 g | 14% | 0.38 g | 71% | 1.3 g | 100% |  |  |  |  | 
601% | CCCCCCCCCCCCCC(=O)NC[C@H](N)C(=O)N[C@@H](CCCNC(=N)N)C(=O)N[C@@H](C)C(=O)N[C@@H](Cc1c[nH]cn1)C(=O)N[C@@H](CCC(N)=O)C(=O)N[C@@H](Cc1c[nH]cn1)C(=O)N[C@@H](CO)C(=O)N[C@@H](CCCC)C(=O)N[C@@H](CCC(=O)O)C(=O)N[C@H](C(=O)N[C@@H](CCCNC(=N)N)C(=O)N[C@H](C(=O)N1CCC[C@H]1C(=O)N[C@@H](CC(=O)O)C(=O)N[C@H](C(=O)N[C@@H](CC(N)=O)C(=O)N1CCC[C@H]1C(=O)N[C@@H](C)C(=O)N[C@@H](Cc1c[nH]c2ccccc12)C(=O)N[C@@H](Cc1ccc(O)cc1)C(=O)N[C@H](C(=O)NCC(=O)N[C@@H](CCCNC(=N)N)C(=O)NCC(=O)N[C@H](C(=O)N[C@@H](CCCNC(=N)N)C(=O)N1CCC[C@H]1C(=O)N[C@H](C(=O)NCC(=O)N[C@@H](CCCNC(=N)N)C(=O)N[C@@H](Cc1ccccc1)C(N)=O)C(C)C)[C@@H](C)CC)[C@@H](C)O)[C@@H](C)CC)[C@@H](C)O)[C@@H](C)O [Analog 5] (H-[Dap](Myristoyl)RAHQHS[Nle]ETRTPDINPAWYTGRGIRPVGRF-NH2) | significantly decreased food intake |  |  |  |  | 0.35 g | 62% | 0.96 g | 73% | dose dependent | 0.05 g | 25% | 0.18 g | 21%

— patent publication US9937235B2, “Lipidated peptides as anti-obesity agents” (USTAV ORGANICKE CHEMIE A BIOCHEMIE AKADEMIE VED CR, V.V.I, priority 2012, dated 2018)
